Laboratory results published in patent US5103018A, “Mitomycin derivatives” (Kyowa Hakko Kogyo Kabushiki Kaisha, priority 1986, dated 1992).
Values after ≈ are worked out from the molar mass of the structure shown.

Legend:
Solubility in water = format: physicochemical; details: water
Escherichia coli ATCC 26 = assay: Minimum inhibitory concentration, agar dilution method, EC; format: cell-based; details: Escherichia coli, ATCC26, pH 7, read-out: minimum inhibitory concentration, EC
Text: (§1) Certain Compounds I were selected. Table 3 indicates their anti-bacterial activities in terms of their minimum inhibitory concentration (μg/ml), determined by the agar dilution method effected at a pH of 7.0. In this table, the microorganisms used are abbreviated as follows:
EC: Escherichia coli ATCC 26

in vivo = format: in vivo, mice (ddy strain); details: mouse, in vivo, ip; read-out: (WBC4000/ED50)* = (WBC4000/ED50)/[(WBC4000/ED50) of MMC1]
Protocol: (§2) Certain compounds were selected from Compounds I. The following Table 4 indicates anti-tumour activity against Sarcoma 180 solid tumour (ED50), acute toxicity (LD50) and effects on the peripheral leucocytes (WBC4000) of each compound.
(§3) (4) Effect upon the number of the peripheral leucocytes:
(§4) Sarcoma 180 solid tumour cells (5×10^6) were subcutaneously implanted into the right armpit of each mouse (body weight 20±2 g) of a group consisting of 5 male mice (ddy strain). 24 hours after implantation,a test compound was abdominally administered to each mouse. 4 days later, blood (each 0.02 ml) was collected from the suborbital plexus vein of each tumour-carrying mouse. The collected sample of blood was dispersed in 9.98 ml of Cell-kit Seven solution. One drop of saponin solution was added to the sample to dissolve erythrocytes and then a microcell counter was used to measure the number of leucocytes. On graph paper, the number of leucocytes was indicated on the y-axis by an arithmetic scale and the does of the test compound was indicated on the x-axis by a logarithmic scale.
(§5) The relationship between the number of peripheral leucocytes and the dosage of the test compound was plotted to obtain WBC4000 viz. the dosage corresponding to […] per mm^3 (about half of the number of leucocytes of normal mice).

Acute toxicity = format: in vivo, mice (ddy); details: mouse, in vivo, ip; for LD50 at 336 h: ddy mice, single i.p., 14 days, Behren Korber's method; for selectivity ratio: read-out: (C.I.)* = (LD50/ED50)/[(LD50/ED50) of MMC1]
Protocol: as §2
(§6) Each animal of the test group consisting of 5 ddy mice was once administered (i.p.) with a test compound. […] The LD50 was determined by Behren Korber's method.

[1] = system: Streptococcus faecalis ATCC 10541; assay: Minimum inhibitory concentration, agar dilution method, SF; format: cell-based; details: Enterococcus faecalis, ATCC10541, pH 7, read-out: minimum inhibitory concentration, SF
Text: as §1
SF: Streptococcus faecalis ATCC 10541

[2] = system: Proteus vulgaris ATCC 6897; assay: Minimum inhibitory concentration, agar dilution method, PV; format: cell-based; details: Proteus vulgaris, ATCC6897, pH 7, read-out: minimum inhibitory concentration, PV
Text: as §1
PV: Proteus vulgaris ATCC 6897

[3] = system: Klebsiella pneumoniae ATCC 10031; assay: microbe, parasite or virus in culture; format: cell-based; details: ATCC10031, pH 7, read-out: minimum inhibitory concentration, KP
Text: Certain Compounds I were selected. […] In this table, the microorganisms used are abbreviated as follows:
KP: Klebsiella pneumoniae ATCC 10031

Sarcoma 180 solid tumour = assay: animal or person; format: in vivo, mice (ddy strain); details: for ED50: Mus musculus, Sarcoma-180, ip, 168 h, read-out: ED50 ip
Text: as §2
(1) Effect against Sarcoma 180 solid tumour:
5×10^6 cells of Sarcoma 180 solid tumour cells were abdominally implanted into male mice of ddy strain. 7 days after this, ascites cells were sampled. The cells were washed once with a sterilized physiological solution of sodium chloride and were used to prepare a cell suspension containing 5×10^7 cells per ml. On each occasion, 0.1 ml of the cell suspension was subcutaneously implanted into the right armpit of a male mouse (ddy strain; body weight 20±2 g). 24 hours after the implantation of the tumour cells, the test compound which was dissolved in a physiological solution of sodium chloride with or without addition of Tween 80 was abdominally administered to each mouse of a group consisting of 5 animals at a does of 0.1-0.2 ml. The anti-tumour activity was determined as follows:
7 days after the implantation, the major axis (a) and the minor axis (b) of the tumour were measured to calculate a value of "a×b^2 /2" which corresponds to the volume of the tumour. The anti-tumour activity was expressed by T/C viz. the ratio of the volume of the tumours (T) of the group of animals administered with the test compound to the corresponding volume of tumours (C) of the untreated animals.
(2) Determination of ED50 :
The term ED50 denotes the administered amount needed for reducing the volume of Sarcoma 180 solid tumours in the animals to 50% on the basis of the corresponding volume of Sarcoma 180 solid tumours in control (untreated) animals.
On graph paper, T/C was indicated by an arithmetic scale on the longitudinal axis and the administered amount of test compound was indicated by a logarithmic scale on the lateral axis.

[4] = system: Staphylococcus aureus ATCC 6583P; assay: Minimum inhibitory concentration, agar dilution method, SA; format: cell-based; details: Staphylococcus aureus, ATCC6583P, pH 7, read-out: minimum inhibitory concentration, SA
Text: as §1
SA: Staphylococcus aureus ATCC 6583P

P388 Leukemia = assay: Effect upon Leukemia P 388; format: in vivo, mouse (CDF1); details: single i.p., 33 days
Protocol: (5) Effect upon Leukemia P 388:
Ascites cells were collected from P388 Leukemia-carrying mouse (DBA/2) 7 days after the implantation. The number of the cells of P388 Leukemia in the sample was counted. A physiological solution of sodium chloride was sterilized and used to prepare a cell suspension containing 5×10^6 tumour cells per ml. On each occasion, 0.2 ml of the suspension containing 1×10^6 cells was implanted into the abdominal cavity of each mouse (CDF1; body weight 20~25 g). 24 hours after implantation, the test compound was once given to each mouse of a test group consisting of 6 mice by abdominal injection.
The activity of the test samples was determined by the ratio of the average survival days of the treated animals to the average survival days of untreated animals viz. ILS % (Increased Life Span).

peripheral leucocytes = assay: in vivo; format: in vivo, mice (ddy strain); details: for WBC4000/ED50 (in words): in comparison with mitomycin C
Protocol: as §2, §3, §4, §5

ddy mice = assay: Acute toxicity; format: in vivo; details: for C.I. (LD50/ED50) (in words): in comparison with mitomycin C
Protocol: as §2, §6

Lipophilicity = format: physicochemical; details: in comparison with mitomycin C
[5] = Stability of isolated compound; format: physicochemical

Structure (SMILES) | solubility (Solubility in water) [mg/mL] | MIC (Escherichia coli ATCC 26) [µg/mL] | selectivity ratio (in vivo) | LD50 at 336 h (Acute toxicity) [mg/kg] | selectivity ratio (Acute toxicity) | MIC [1] [µg/mL] | MIC [2] [µg/mL] | MIC [3] [µg/mL] | ED50 (Sarcoma 180 solid tumour) [mg/kg] | MIC [4] [µg/mL] | WBC4000/ED50 (in words) (peripheral leucocytes) | C.I. (LD50/ED50) (in words) (ddy mice) | lipophilicity (in words) (Lipophilicity) | further results
CO[C@@]12[C@H](COC(N)=O)C3=C(C(=O)C(C)=C(NCCSSCCNC(=O)CC[C@@H](N)C(=O)O)C3=O)N1C[C@@H]1N[C@@H]12 [Compound 3, 7-N-[2-[[2-(N^5 -D-glutamino)ethyl]dithio]ethyl]mitomycin C] | > 20 | 50 (≈ 83.5 µM) | 3.02 | 22.5 | 1.46 | 3.1 (≈ 5.18 µM) | 0.8 (≈ 1.34 µM) | 0.8 (≈ 1.34 µM) | 5.7 | 1.6 (≈ 2.67 µM) | – | – | – | –
CO[C@@]12[C@H](COC(N)=O)C3=C(C(=O)C(C)=C(NCCSSCCCNC(=O)CC[C@H](N)C(=O)O)C3=O)N1C[C@@H]1N[C@@H]12 [Compound 4, 7-N-[2-[[3-(N^5 -L-glutamino)propyl]dithio]ethyl]mitomycin C] | > 20 | 250 (≈ 408 µM) | 1.27 | 22.5 | 1.52 | 3.1 (≈ 5.06 µM) | 3.1 (≈ 5.06 µM) | 0.8 (≈ 1.31 µM) | 5.1 | 1.6 (≈ 2.61 µM) | – | – | – | –
CO[C@@]12[C@H](COC(N)=O)C3=C(C(=O)C(C)=C(NCCSSCCNC(=O)C[C@H](N)C(=O)O)C3=O)N1C[C@@H]1N[C@@H]12 [Compound 6, 7-N-[2-[[2-(N^4 -L-asparagino)ethyl]dithio]ethyl]mitomycin C] | > 20 | > 50 | 2.38 | 26.3 | 1.81 | 3.1 (≈ 5.3 µM) | 0.8 (≈ 1.37 µM) | 0.8 (≈ 1.37 µM) | 5 | 0.8 (≈ 1.37 µM) | – | – | – | –
CO[C@@]12[C@H](COC(N)=O)C3=C(C(=O)C(C)=C(NCCSSCC(=O)O[C@H]4CC[C@H]5[C@@H]6CCc7cc(OC(=O)c8ccccc8)ccc7[C@H]6CC[C@]45C)C3=O)N1C[C@@H]1N[C@@H]12 [Compound 26, 7-N-[2-[[[[17β-(3-benzoyloxy-1,3, 5(10)-estratrienyl)oxy]carbonyl]methyl]dithio]ethyl]mitomycin C] | – | – | 2.57 | 18.8 | 1.27 | – | – | – | 5 | – | superior to mitomycin C | superior to mitomycin C | superior to mitomycin C | ILS* (ratio of ILS % to that of mitomycin C) (P388 Leukemia; dose 6.25 mg/kg): > 1.08
CO[C@@]12[C@H](COC(N)=O)C3=C(C(=O)C(C)=C(NCCSSCCC(=O)O[C@H]4CC[C@H]5[C@@H]6CCc7cc(OC(=O)c8ccccc8)ccc7[C@H]6CC[C@]45C)C3=O)N1C[C@@H]1N[C@@H]12 [Compound 27, 7-N-[2-[[2-[[17β-(3-benzoyloxy-1,3, 5(10)-estratrienyl)oxy]carbonyl]ethyl]dithio]ethyl]mitomycin C] | – | – | 2.43 | 22.5 | 1.63 | – | – | – | 4.6 | – | superior to mitomycin C | superior to mitomycin C | superior to mitomycin C | ILS* (ratio of ILS % to that of mitomycin C) (P388 Leukemia; dose 12.5 mg/kg): > 1.53
CC1=C(NCCSSCC(=O)O[C@H]2CC[C@H]3[C@@H]4CCc5cc(OC(=O)c6ccccc6)ccc5[C@H]4CC[C@]23C)C(=O)C2=C(C1=O)N1C[C@H]3[C@H](N3C)[C@]1(O)[C@H]2COC(N)=O (stereo partly drawn) [Compound 28, 7-N-[2-[[[[17β-(3-benzoyloxy-1,3, 5(10)-estratrienyl)oxy]carbonyl]methyl]dithio]ethyl]mitomycin D] | – | – | 1.43 | 75 | 2.53 | – | – | – | 9.9 | – | superior to mitomycin C | superior to mitomycin C | superior to mitomycin C | ILS* (ratio of ILS % to that of mitomycin C) (P388 Leukemia; dose 25 mg/kg): > 1.67
CC1=C(/C=C/C(C)=C/C=C/C(C)=C/C(=O)NCCSSc2ccccn2)C(C)(C)CCC1 [Compound "m", N-2-(2-pyridyldithio)ethylretinamide] | – | – | – | – | – | – | – | – | – | – | – | – | – | stability (in words) [5]: unstable
Cc1c(C)c2c(c(C)c1OC(=O)CCC(=O)NCCSSc1ccccn1)CC[C@@](C)(CCC[C@H](C)CCC[C@H](C)CCCC(C)C)O2 [Compound "n"] | – | – | – | – | – | – | – | – | – | – | – | – | – | stability (in words) [5]: relatively stable
CO[C@]12[C@H](COC(N)=O)[C@H]3C(=O)C(N)=C(C)C(=O)[C@]34N3[C@H]1[C@@H]3CN24 [MM-C 2, albomitomycin C, reference compound] | – | – | – | – | – | – | – | – | – | – | – | – | – | (WBC4000/ED50)* = (WBC4000/ED50)/[(WBC4000/ED50) of MMC1] (peripheral leucocytes; relative to mitomycin C, ip, 4 days after dosing): 0.95; LD50 ip (ddy mice; ddy mice, single i.p., 14 days, Behren Korber's method): < 12.0 mg/kg; (C.I.)* = (LD50/ED50)/[(LD50/ED50) of MMC1] (ddy mice; relative to mitomycin C, ip): 1.16; ED50 ip (Sarcoma 180 solid tumour; ddy mice, i.p. 24 h after implantation, 50% reduction of tumour volume at day 7): 5.4 mg/kg
